For series [1] the following is noted: cell viability/%. A digest of the protocol: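 First, library peptide stocks are diluted 250-fold in RPMI1640 with 10% heat-inactivated FBS. Next, they are mixed with P388 cells to give 1 × 10^4 cells/mL and incubated 92 h at 37 °C, 5% CO2. Finally, viability (%) is scored by WST-1 absorbance at 415 nm.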
Series [2] is described as follows: H+/Na+ transport assay of bead-derived peptides (one-point).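 Also: relative to parent gramicidin A activity set to 1.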 It is filed as biochemical. Set-up: key: relative activity; mean of two control wells = 1.00. As to conditions: bead-derived peptide solution, EYPC/EYPG LUVs. A digest of the protocol:
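H+/Na+ transport is monitored through pyranine fluorescence in freshly extruded LUVs after a 30-min room-temperature vortex with each library peptide at a single concentration. Signals are normalized to detergent (Triton X-100) and untreated controls.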

Series [3] concerns Streptococcus pyogenes SSI-9. Nature of the series: Antibacterial activity assay of bead-derived peptides (three concentrations). It counts as cell-based. The arrangement: key: +++: inhibition by the 640-fold diluted peptide solution; ++: inhibition by the 160-fold diluted solution; +: inhibition by the 40-fold diluted solution; -: no inhibition. As to conditions: S. pyogenes, bead-derived peptide solution, three concentrations. Put shortly: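 Three stock dilutions per peptide (none, 4-fold, 16-fold in DMSO) are screened in 96-well format. The medium is blood-supplemented cation-adjusted MHB, inoculated with 2 × 10^5 CFU S. pyogenes SSI-9. Growth is read as cell precipitation at 18 h, 37 °C.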

Structures are written as SMILES. Where a SMILES comes first, the peptide text is derived from it. [ ]: non-standard residue; d: D form. The star is where a group is joined. NHCH2CH2OH = OCCN*; For = O=C*

As for `CC(C)C[C@@H](NC(=O)[C@H](C)NC(=O)CNC(=O)[C@@H](NC=O)C(C)C)C(=O)N[C@@H](C)C(=O)N[C@H](CC(C)C)C(=O)N[C@H](C(=O)N[C@@H](C(=O)N[C@@H](Cc1c[nH]c2ccccc12)C(=O)N[C@@H](C(=O)N[C@@H](Cc1c[nH]c2ccccc12)C(=O)N[C@@H](C(=O)N[C@@H](Cc1c[nH]c2ccccc12)C(=O)N[C@H](CC(C)C)C(=O)N[C@@H](Cc1c[nH]c2ccccc12)C(=O)NCCO)C(C)C)C(C)C)[C@H](C)O)C(C)C` [compound 4784] (For-VGA[dL]A[dL]V[dT]W[dV]W[dV]W[dL]W-NHCH2CH2OH), the viability (commonly a read-out of living cells in per cent, often relative to untreated cells) in series [1] worked out at 100%. Also, the “H+/Na+ transport activity normalized against the value of 1 (1.00)” value (from here on “H+/Na+ transport activity normalized”) in series [2] came out at 1.19. For the same compound, the antibacterial activity result in series [3] is on record as “-”.

In series [1], `CC(C)C[C@@H](NC(=O)[C@H](C)NC(=O)CNC(=O)[C@@H](NC=O)C(C)C)C(=O)N[C@@H](C)C(=O)N[C@@H](C(=O)N[C@H](C(=O)N[C@H](CC(C)C)C(=O)N[C@@H](Cc1c[nH]c2ccccc12)C(=O)N[C@@H](C(=O)N[C@@H](Cc1c[nH]c2ccccc12)C(=O)N[C@H](CC(C)C)C(=O)N[C@@H](Cc1c[nH]c2ccccc12)C(=O)N[C@@H](C(=O)N[C@@H](Cc1c[nH]c2ccccc12)C(=O)NCCO)[C@H](C)O)[C@H](C)O)C(C)C)C(C)C` [compound 4868] (For-VGA[dL]A[dV]V[dL]W[dT]W[dL]W[dT]W-NHCH2CH2OH) came in with a viability of 100%. Further, in series [2], the “H+/Na+ transport activity normalized” value was 1.06. In addition, in series [3], the antibacterial activity result is given as “-”.

In the case of `CNC(=O)C[C@@H](NC(=O)[C@H](Cc1c[nH]c2ccccc12)NC(=O)[C@@H](CC(C)C)NC(=O)[C@H](Cc1c[nH]c2ccccc12)NC(=O)[C@H](NC(=O)[C@H](Cc1c[nH]c2ccccc12)NC(=O)[C@H](NC(=O)[C@@H](NC(=O)[C@H](NC(=O)[C@H](C)NC(=O)[C@@H](CC(C)C)NC(=O)[C@H](C)NC(=O)CNC(=O)[C@@H](NC=O)C(C)C)C(C)C)C(C)C)C(C)C)C(C)C)C(=O)N[C@@H](Cc1c[nH]c2ccccc12)C(=O)NCCO` [compound 4898] (For-VGA[dL]A[dV]V[dV]W[dV]W[dL]W[dD](NHMe)W-NHCH2CH2OH), the viability in series [1] is 100%. Besides, the “H+/Na+ transport activity normalized” value in series [2] was 1.21. Moreover, the antibacterial activity entry in series [3] is on record as “-”.

In turn, `CC(C)C[C@@H](NC(=O)[C@H](C)NC(=O)CNC(=O)[C@@H](NC=O)C(C)C)C(=O)N[C@@H](C)C(=O)N[C@H](CC(C)C)C(=O)N[C@H](C(=O)N[C@H](CC(C)C)C(=O)N[C@@H](Cc1c[nH]c2ccccc12)C(=O)N[C@H](CC(C)C)C(=O)N[C@@H](Cc1c[nH]c2ccccc12)C(=O)N[C@H](CC(C)C)C(=O)N[C@@H](Cc1c[nH]c2ccccc12)C(=O)N[C@@H](C(=O)N[C@@H](Cc1c[nH]c2ccccc12)C(=O)NCCO)[C@H](C)O)C(C)C` [compound 5006] (For-VGA[dL]A[dL]V[dL]W[dL]W[dL]W[dT]W-NHCH2CH2OH) gave a viability in series [1] of 100%. Also, the “H+/Na+ transport activity normalized” value in series [2] is given as 1.12. Also, the antibacterial activity entry in series [3] is on record as “-”.

For `CC(C)C[C@@H](NC(=O)[C@H](C)NC(=O)CNC(=O)[C@@H](NC=O)C(C)C)C(=O)N[C@@H](C)C(=O)N[C@@H](C(=O)N[C@H](C(=O)N[C@@H](C(=O)N[C@@H](Cc1c[nH]c2ccccc12)C(=O)N[C@@H](C(=O)N[C@@H](Cc1c[nH]c2ccccc12)C(=O)N[C@@H](C(=O)N[C@@H](Cc1c[nH]c2ccccc12)C(=O)N[C@H](CC(C)C)C(=O)N[C@@H](Cc1c[nH]c2ccccc12)C(=O)NCCO)C(C)C)C(C)C)C(C)C)C(C)C)C(C)C` [compound 5056] (For-VGA[dL]A[dV]V[dV]W[dV]W[dV]W[dL]W-NHCH2CH2OH), the viability in series [1] was determined as 100%. Besides, the “H+/Na+ transport activity normalized” value in series [2] is reported as 1.01. Besides, in series [3], the antibacterial activity entry is “+”.

For the compound `CNC(=O)C[C@@H](NC(=O)[C@H](C)NC(=O)[C@H](NC(=O)[C@H](C)NC(=O)CNC(=O)[C@@H](NC=O)C(C)C)C(C)C)C(=O)N[C@H](C(=O)N[C@@H](C(=O)N[C@@H](Cc1c[nH]c2ccccc12)C(=O)N[C@@H](C(=O)N[C@@H](Cc1c[nH]c2ccccc12)C(=O)N[C@H](CC(C)C)C(=O)N[C@@H](Cc1c[nH]c2ccccc12)C(=O)N[C@H](CC(C)C)C(=O)N[C@@H](Cc1c[nH]c2ccccc12)C(=O)NCCO)C(C)C)C(C)C)C(C)C` [compound 5211] (For-VGA[dV]A[dD](NHMe)V[dV]W[dV]W[dL]W[dL]W-NHCH2CH2OH), the viability in series [1] is 100%. The “H+/Na+ transport activity normalized” value in series [2] is listed as 1.05. For the same compound, the antibacterial activity entry in series [3] is “-”.

`CNC(=O)C[C@@H](NC(=O)[C@H](Cc1c[nH]c2ccccc12)NC(=O)[C@H](NC(=O)[C@@H](NC(=O)[C@@H](CC(C)C)NC(=O)[C@H](C)NC(=O)[C@@H](CC(C)C)NC(=O)[C@H](C)NC(=O)CNC(=O)[C@@H](NC=O)C(C)C)C(C)C)C(C)C)C(=O)N[C@@H](Cc1c[nH]c2ccccc12)C(=O)N[C@@H](C(=O)N[C@@H](Cc1c[nH]c2ccccc12)C(=O)N[C@@H](C(=O)N[C@@H](Cc1c[nH]c2ccccc12)C(=O)NCCO)C(C)C)C(C)C` [compound 5255] (For-VGA[dL]A[dL]V[dV]W[dD](NHMe)W[dV]W[dV]W-NHCH2CH2OH) gave a viability in series [1] of 100%. The “H+/Na+ transport activity normalized” value in series [2] stood at 1.25. Also, the antibacterial activity entry in series [3] was “-”.

As to `CNC(=O)C[C@@H](NC(=O)[C@H](Cc1c[nH]c2ccccc12)NC(=O)[C@@H](CC(C)C)NC(=O)[C@@H](NC(=O)[C@@H](CC(C)C)NC(=O)[C@H](C)NC(=O)[C@H](NC(=O)[C@H](C)NC(=O)CNC(=O)[C@@H](NC=O)C(C)C)[C@H](C)O)C(C)C)C(=O)N[C@@H](Cc1c[nH]c2ccccc12)C(=O)N[C@H](CC(C)C)C(=O)N[C@@H](Cc1c[nH]c2ccccc12)C(=O)N[C@H](CC(C)C)C(=O)N[C@@H](Cc1c[nH]c2ccccc12)C(=O)NCCO` [compound 5284] (For-VGA[dT]A[dL]V[dL]W[dD](NHMe)W[dL]W[dL]W-NHCH2CH2OH), in series [1], the viability worked out at 100%. In series [2], the “H+/Na+ transport activity normalized” value is on record as 1.02. In series [3], the antibacterial activity result is reported as “-”.

For the compound `CC(C)C[C@@H](NC(=O)[C@H](C)NC(=O)CNC(=O)[C@@H](NC=O)C(C)C)C(=O)N[C@@H](C)C(=O)N[C@@H](C(=O)N[C@H](C(=O)N[C@@H](C(=O)N[C@@H](Cc1c[nH]c2ccccc12)C(=O)N[C@@H](C(=O)N[C@@H](Cc1c[nH]c2ccccc12)C(=O)N[C@@H](C(=O)N[C@@H](Cc1c[nH]c2ccccc12)C(=O)N[C@@H](C(=O)N[C@@H](Cc1c[nH]c2ccccc12)C(=O)NCCO)C(C)C)C(C)C)C(C)C)C(C)C)C(C)C)[C@H](C)O` [compound 5343] (For-VGA[dL]A[dT]V[dV]W[dV]W[dV]W[dV]W-NHCH2CH2OH), in series [1], the viability amounted to 100%. For the same compound, in series [2], the “H+/Na+ transport activity normalized” value worked out at 1.33. Also, in series [3], the antibacterial activity entry is “-”.

Consider `CC(C)C[C@@H](NC(=O)[C@H](C)NC(=O)[C@H](NC(=O)[C@H](C)NC(=O)CNC(=O)[C@@H](NC=O)C(C)C)[C@H](C)O)C(=O)N[C@H](C(=O)N[C@H](CC(C)C)C(=O)N[C@@H](Cc1c[nH]c2ccccc12)C(=O)N[C@@H](C(=O)N[C@@H](Cc1c[nH]c2ccccc12)C(=O)N[C@@H](C(=O)N[C@@H](Cc1c[nH]c2ccccc12)C(=O)N[C@H](CC(C)C)C(=O)N[C@@H](Cc1c[nH]c2ccccc12)C(=O)NCCO)C(C)C)[C@H](C)O)C(C)C` [compound 5532] (For-VGA[dT]A[dL]V[dL]W[dT]W[dV]W[dL]W-NHCH2CH2OH), for which the viability in series [1] was 100%. Besides, the “H+/Na+ transport activity normalized” value in series [2] turned out to be 1.06. For the same compound, the antibacterial activity result in series [3] is “-”.

Compound `CNC(=O)C[C@@H](NC(=O)[C@@H](NC(=O)[C@H](NC(=O)[C@H](C)NC(=O)[C@H](NC(=O)[C@H](C)NC(=O)CNC(=O)[C@@H](NC=O)C(C)C)C(C)C)C(C)C)C(C)C)C(=O)N[C@@H](Cc1c[nH]c2ccccc12)C(=O)N[C@H](CC(C)C)C(=O)N[C@@H](Cc1c[nH]c2ccccc12)C(=O)N[C@@H](C(=O)N[C@@H](Cc1c[nH]c2ccccc12)C(=O)N[C@@H](C(=O)N[C@@H](Cc1c[nH]c2ccccc12)C(=O)NCCO)C(C)C)C(C)C` [compound 5536] (For-VGA[dV]A[dV]V[dD](NHMe)W[dL]W[dV]W[dV]W-NHCH2CH2OH) returned a viability in series [1] of 100%. Besides, the “H+/Na+ transport activity normalized” value in series [2] turned out to be 1.45. Besides, the antibacterial activity result in series [3] is on record as “-”.

`CC(C)C[C@@H](NC(=O)[C@H](Cc1c[nH]c2ccccc12)NC(=O)[C@H](NC(=O)[C@H](Cc1c[nH]c2ccccc12)NC(=O)[C@H](NC(=O)[C@H](Cc1c[nH]c2ccccc12)NC(=O)[C@H](NC(=O)[C@@H](NC(=O)[C@H](NC(=O)[C@H](C)NC(=O)[C@H](NC(=O)[C@H](C)NC(=O)CNC(=O)[C@@H](NC=O)C(C)C)C(C)C)C(C)C)C(C)C)[C@H](C)O)C(C)C)C(C)C)C(=O)N[C@@H](Cc1c[nH]c2ccccc12)C(=O)NCCO` [compound 5542] (For-VGA[dV]A[dV]V[dT]W[dV]W[dV]W[dL]W-NHCH2CH2OH) returned a viability in series [1] of 100%. The “H+/Na+ transport activity normalized” value in series [2] is on record as 1.17. In addition, the antibacterial activity entry in series [3] is listed as “-”.

These data come from publication PMC7531004, “Discovery of gramicidin A analogues with altered activities by multidimensional screening of a one-bead-one-compound library” (Nature Communications, 2020).
